The values that follow come from PubChem BioAssay (NCI).

Among the test systems are MDA-MB-468 breast; UACC-62 melanoma; SN12C renal; NCI-H522 lung; U251 CNS; ACHN renal; A549 NSCLC; NCI-H23 lung; SK-MEL-28 melanoma; IGROV1 ovarian; SF-295 CNS; MCF7 breast; HCT-15 colon; HT29 colon; MOLT-4 leukemia; T-47D breast; LOX IMVI melanoma; MDA-MB-435; SK-MEL-5 melanoma; HOP-62 NSCLC; RXF 393 renal; MDA-MB-231 breast; CAKI-1 renal; SF-268 CNS; TK-10 renal; OVCAR-4 ovarian; K-562 leukemia; NCI/ADR-RES ovarian; EKVX NSCLC; SK-OV-3 ovarian; HCC-2998 colon; SR leukemia; UACC-257 melanoma; DU-145 prostate; MALME-3M melanoma; SF-539 CNS; BT-549 breast; SNB-19 CNS; PC-3 prostate; HS 578T breast; 786-0 renal; HOP-92 NSCLC; OVCAR-3 ovarian; A498 renal; OVCAR-8 ovarian; HCT-116 colon; CCRF-CEM leukemia; RPMI-8226 leukemia; UO-31 renal; OVCAR-5 ovarian; NCI-H460 lung; COLO 205 colon; SK-MEL-2 melanoma; NCI-H226 lung; KM12 colon; M14 melanoma.

What all share (test): NCI tumour cell line growth inhibition, 48 h

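Compound exposure: 48 hours, 5 concentrations, 96-well plates. GI50: concentration for 50% inhibition of growth. TGI: concentration producing complete growth inhibition.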

Regarding `COc1cc(C2CC(c3ccc4c(c3)OCO4)=NN2C=O)cc(OC)c1OC` (stereo not drawn), in the test with MDA-MB-468 breast, the GI50 was 2.05 µM and the TGI was determined as 6.81 µM.
On the same counts, the results for `COc1ccc2c(c1)cn1c3ccc(O)cc3nc(N)c21` are 0.747 µM and 4.73 µM.
With `CCCC(C)c1cc(Cc2cc(Cl)cc(Cl)c2O)c(O)c(Cc2cc(Cl)cc(Cl)c2O)c1` (stereo not drawn), in the test on MDA-MB-468 breast, the GI50 is 0.393 µM and the TGI came out at 5.07 µM.
Take `COc1ccc(-c2csc(N(C(=O)N3CCN(c4cc5c(cc4F)c(=O)c(C(=O)O)cn5C4CC4)CC3)c3ccccc3)n2)cc1`: in the test with MDA-MB-468 breast, the GI50 was 2.55 µM and the TGI was 8.74 µM.
In the case of `COc1cc(/C=C/c2cc(O)c3cc(C(C)=O)c(=O)oc3c2)cc2c1O[C@]1(C)CC[C@@H](O)C(C)(C)[C@H]1C2`, in the test with MDA-MB-468 breast, the GI50 was 3.87 µM and the TGI worked out at 20.5 µM.
As to `COc1ccc(-c2n/c(=C\c3c(O)[nH]c4ccc(OC)cc34)cc3c2=Nc2ccccc2-3)cc1`, in the test with MDA-MB-468 breast, the GI50 is 1.56 µM and the TGI amounted to 3.46 µM.
For `CCc1nccc2c1nc(-c1nonc1N)n2CC`, in the test on MDA-MB-468 breast, the GI50 was above 25 µM and the TGI was above 25 µM.
Consider `COc1ccc(/C=C2\CCCC3=C2N=C2SC(C)=NN2C3c2ccc(OC)c(OC)c2)cc1OC` (stereo not drawn), for which, in the test with MDA-MB-468 breast, the GI50 was 2.61 µM and the TGI was found to be 9.09 µM.
For `COc1cccc2c1c(C(=O)C(=O)Nc1cc(C)no1)cn2Cc1ccc(F)cc1`, in the test with MDA-MB-468 breast, the GI50 was 2.42 µM and the TGI is 17.7 µM.
For `N=C(N)c1ccc(-c2ccc(-c3cc(Cl)cc(Cl)c3)o2)nc1`, in the test with MDA-MB-468 breast, the GI50 was 1.69 µM and the TGI was determined as 3.29 µM.
`Cc1ccccc1[P+](Cc1ccccc1)(c1ccccc1)c1ccccc1`: in the test with MDA-MB-468 breast, the GI50 is 0.367 µM and the TGI was 4 µM.
Turning to `COc1cccc(-n2ncc3c(N/N=C/c4ccc(C(=O)NCCN(C)C)cc4)ncnc32)c1`, in the test with MDA-MB-468 breast, the GI50 was 0.853 µM and the TGI turned out to be 5.16 µM.
Consider `CN1CCC(n2cnc(-c3ccc(F)cc3)c2-c2ccnc(NCCO)n2)CC1`, for which, in the test with MDA-MB-468 breast, the GI50 is 10 µM and the TGI was above 25 µM.
Consider `CC[C@@H](C(=O)O)C1CC[C@H](C)C([C@@H](C)[C@H](O)[C@H](C)C(=O)[C@H](CC)C2O[C@]3(C=C[C@@H](O)[C@]4(CC[C@@](C)(C5CC[C@](O)(CC)[C@H](C)O5)O4)O3)[C@H](C)C[C@@H]2C)O1` (stereo partly drawn), for which, in the test on MDA-MB-468 breast, the GI50 is 0.292 µM and the TGI came to 4.34 µM.
On the same counts, the results for `O=C(CCCCCCC(=O)Nc1ccc(N(CCCl)CCCl)cc1)NO` are 0.232 µM and 1.11 µM.
In the case of `COc1ccc(C(=O)/C=C/c2cccc(Br)c2)cc1S(N)(=O)=O`, the GI50 in the test with UACC-62 melanoma was 1.68 µM; in the test with SN12C renal, 1.44 µM; in the test on NCI-H522 lung, 1.63 µM; in the test with U251 CNS, 1.34 µM; in the test with ACHN renal, 1.67 µM; with A549 NSCLC it was 2.82 µM. Moreover, the GI50 in the test on NCI-H23 lung is 1.77 µM; with SK-MEL-28 melanoma, 2.15 µM; with IGROV1 ovarian it was 2.24 µM; in the test on SF-295 CNS it was 2.09 µM; in the test on MCF7 breast it was 1.58 µM; in the test on HCT-15 colon, 1.01 µM. The GI50 with HT29 colon is 1.61 µM; in the test on MOLT-4 leukemia, 2.17 µM; in the test with T-47D breast, 2.13 µM; in the test on LOX IMVI melanoma, 1.24 µM; in the test on MDA-MB-435, 2.06 µM; in the test on SK-MEL-5 melanoma, 2.31 µM. Also, the GI50 is 2.05 µM in the test on HOP-62 NSCLC; 1.6 µM in the test on RXF 393 renal; 2.45 µM with MDA-MB-231 breast; 2.28 µM with CAKI-1 renal; 3.02 µM in the test with SF-268 CNS; 2.23 µM with TK-10 renal. Also, the GI50 with OVCAR-4 ovarian is 4.08 µM; in the test on K-562 leukemia, 1.35 µM; in the test on NCI/ADR-RES ovarian, 2.21 µM; in the test on EKVX NSCLC it was 5.24 µM; in the test on SK-OV-3 ovarian, 4.06 µM; with HCC-2998 colon it was 1.45 µM. For the same compound, the GI50 in the test with SR leukemia is 0.732 µM; in the test on UACC-257 melanoma, 3.27 µM; in the test with DU-145 prostate, 3.56 µM; in the test on MALME-3M melanoma it was 3.19 µM; in the test on SF-539 CNS, 1.69 µM; in the test on BT-549 breast it was 1.51 µM. Besides, the GI50 in the test with SNB-19 CNS is 2.91 µM; with PC-3 prostate, 2.02 µM; in the test with HS 578T breast, 16 µM; with 786-0 renal, 1.63 µM; in the test on HOP-92 NSCLC, 1.8 µM; with OVCAR-3 ovarian, 1.29 µM. The GI50 in the test with A498 renal was 13.8 µM; in the test with OVCAR-8 ovarian, 2.28 µM; in the test on MDA-MB-468 breast, 1.39 µM; in the test with HCT-116 colon, 1.04 µM; in the test on CCRF-CEM leukemia, 2.54 µM; in the test with RPMI-8226 leukemia, 2.05 µM. In addition, the GI50 with UO-31 renal is 1.29 µM; in the test on OVCAR-5 ovarian, 1.74 µM; in the test with NCI-H460 lung, 3.16 µM; in the test on COLO 205 colon, 1.92 µM; with SK-MEL-2 melanoma it was 8.73 µM; with NCI-H226 lung, 2.81 µM. The GI50 was 1.33 µM in the test with KM12 colon and 1.81 µM in the test on M14 melanoma. In addition, the TGI stood at 3.89 µM in the test on UACC-62 melanoma; 3.48 µM with SN12C renal; 3.23 µM in the test on NCI-H522 lung; 2.69 µM in the test on U251 CNS; 3.11 µM in the test on ACHN renal; 10.2 µM with A549 NSCLC. For the same compound, the TGI was 3.43 µM in the test on NCI-H23 lung; 5.46 µM in the test with SK-MEL-28 melanoma; 8.6 µM with IGROV1 ovarian; 6.44 µM in the test on SF-295 CNS; 5.22 µM in the test with MCF7 breast; 2.39 µM in the test on HCT-15 colon. The TGI in the test with HT29 colon is 3.28 µM; in the test on MOLT-4 leukemia, 4.71 µM; in the test on T-47D breast, 6.01 µM; with LOX IMVI melanoma it was 2.48 µM; with MDA-MB-435 it was 7.14 µM; in the test on SK-MEL-5 melanoma, 6.38 µM. Moreover, the TGI in the test with HOP-62 NSCLC stood at 5.74 µM; in the test on RXF 393 renal it was 3.2 µM; with MDA-MB-231 breast, 6.75 µM; in the test with CAKI-1 renal, 7.89 µM; in the test on SF-268 CNS it was 12.7 µM; with TK-10 renal, 11.9 µM. Besides, the TGI was determined as 17.3 µM with OVCAR-4 ovarian; 4.41 µM with K-562 leukemia; 7.13 µM with NCI/ADR-RES ovarian; 18.5 µM in the test on EKVX NSCLC; 15 µM in the test with SK-OV-3 ovarian; 2.99 µM in the test on HCC-2998 colon. For the same compound, the TGI in the test with SR leukemia amounted to 3.54 µM; in the test on UACC-257 melanoma, 14.5 µM; in the test on DU-145 prostate, 12.8 µM; with MALME-3M melanoma, 14 µM; in the test with SF-539 CNS it was 3.44 µM; in the test with BT-549 breast, 3.46 µM. Also, the TGI with SNB-19 CNS was 12 µM; with PC-3 prostate, 4.93 µM; in the test on HS 578T breast, 68.6 µM; in the test on 786-0 renal it was 3.33 µM; in the test on HOP-92 NSCLC it was 11.8 µM; in the test on OVCAR-3 ovarian it was 3.17 µM. In addition, the TGI in the test with A498 renal amounted to 27 µM; in the test with OVCAR-8 ovarian, 10.6 µM; with MDA-MB-468 breast, 2.87 µM; in the test with HCT-116 colon, 2.21 µM; with CCRF-CEM leukemia it was 6.12 µM; in the test on RPMI-8226 leukemia, 5.52 µM. Further, the TGI in the test with UO-31 renal turned out to be 2.7 µM; with OVCAR-5 ovarian, 4.25 µM; in the test with NCI-H460 lung, 11.4 µM; in the test on COLO 205 colon, 3.51 µM; in the test on SK-MEL-2 melanoma it was 21.9 µM; in the test with NCI-H226 lung, 11.4 µM. In addition, the results for the TGI in the test with KM12 colon and in the test on M14 melanoma were 3.29 µM and 4.64 µM, respectively.
Consider `CCCCC(CC)CN=C(N)NC(N)=NCCCCCCN=C(N)NC(N)=NCC(CC)CCCC` (stereo not drawn), for which, in the test on MDA-MB-468 breast, the GI50 was 1.27 µM and the TGI came to 2.73 µM.
Regarding `C=CCOc1cccc(/C=C2\SC(=Nc3ccc(O)cc3)NC2=O)c1`, in the test on MDA-MB-468 breast, the GI50 was 0.416 µM and the TGI turned out to be 4.17 µM.
On the same counts, the results for `Cn1cc(-c2ccc3occ(-c4cccc(-c5ccncc5)c4)c3n2)cn1` are 0.24 µM and 0.941 µM.
